# Counter-ions that a name gives are not always drawn.
# Columns and labels:
# LC3 proteins = test: ITC and NMR titrations; format: binding; details: by ITC and NMR
# Protocol: All ITC experiments were performed at 25 °C using a VP-ITC microcalorimeter (MicroCal Inc, MA, USA) and analyzed with the ITC-Origin 7.0 software (MicroCal Inc.) based on a "one-site binding" reaction. […] Dilution heat of both compounds was measured upon titration of the stocks into buffer. All experiments were performed on a Bruker Avance spectrometer operating at a proton frequency of 500, 600 and 700 MHz at 298 K.
# LC3B [1] = test: cellular autophagy screening: LC3B spots by immunocytochemistry and automated confocal imaging; format: cell-based; details: relative to negative DMSO control, 100 µM, 1 hour; for LC3B inhibition cell based Fold increase of LC3B spots [DMSO control 1.0]: Table 1-a, n.e. means no effect
# Protocol: For screening purposes, cells were seeded in 384 well plates and left over night for attachment.
# Afterwards, medium was removed and 4 % (w/v) paraformaldehyde (PFA) in PBS buffer was added to the cells for 20 minutes, incubated at room temperature. Cells were permeabilized with 0.1 % (v/v) Triton X-100 for 10 min at room temperature and washed with PBS. Cells were blocked with 3 % (w/v) bovine serum albumin (BSA) in PBS for 45 minutes at 37 °C and then incubated with anti-LC3B (PM036, MBL) or anti-p62 (PM045 or M162-3, MBL) primary antibody diluted in 0.3 % BSA (1:2000 or 1:500) for 1.5-2 hours at 37 °C. Cells were washed three times with PBS.
# 384 well plates were then analyzed with an automated confocal microscope Opera (PerkinElmer) enabling high throughput high content screening image analysis. […] A water immersion 60x objective was used for optical slicing and stacking (5x0.5 µm stacks). […] Signal was detected with a fast gated CCD camera. Acapella software (PerkinElmer) is an algorithm based high content imaging and analysis software used in multi-parametric multiplex assays. Acapella was used to follow cell viability (i.e. number of cells) and the number of LC3B and p62 spots per cell.
# The LC3B protein is a ubiquitin-like protein that can be conjugated to phosphatidylethanolamine (PE) in the membrane of the incipient autophagosome. The nonlipidated and lipidated forms are usually referred to as LC3B-I and LC3B-II, respectively. […] Autophagic flux is often inferred on the basis of LC3B-II turnover, measured by western blot (WB) or immunofluorescence (IF) in the presence and absence of lysosomal degradation. […] Lysosomal degradation can be prevented e.g. through the use of compounds that neutralize the lysosomal pH such as Bafilomycin A1 (BafA1) or chloroquine (CQ). […] An additive or supra-additive effect in LC3B-II levels (WB) and LC3B-positive punctae numbers (IF) may indicate that the treatment enhances autophagic flux. […] This assay can be complemented by simultaneous monitoring of autophagosomal substrates or autophagosomal substrate receptors (e.g. SQSTM1/p62) by WB and/or IF. For example, an increase in LC3B-II levels in combination with the accumulation of SQSTM1/p62 is indicative of a blockage of the autophagy pathway at terminal stages.
# LC3B [2] = target: T1, LC3B (Homo sapiens, UniProt Q9GZQ8); test: AlphaScreen interaction displacement assay (GST-LC3B / biotin-LIRtide); format: binding; details: Table 1-a; n.e. means no effect
# T1 construct: made in house; host or cells: E. coli Rosetta (DE3)
# Protocol: The AlphaScreen assay contained 50 mM Tris (pH 7.5), 100 mM NaCl, 0.01% Tween 20, 2 mM DTT, 1 % DMSO and 2-30 nM GST-LC3B and biotin-LIRtide 2-30 nM. The concentrations of GST-LC3B and biotin-LIRtide were experimentally chosen from a cross-titration assay exploring the different combinations of for each batch of protein used and when a new batch of buffer was prepared.
# A gene encoding for human LC3B protein inserted in a pET-GST expression vector was used as a template. Rosetta (DE3) competent cells were transformed by started procedure, plated on an LB agar plate with ampicillin (100 µg/ml) and left overnight at 37 °C. Overnight culture was prepared from a single colony and shaken at 180 rpm at 37 °C. LB medium with ampicillin was inoculated with overnight culture (10 ml per 500 ml of LB) and shaken until the optical density at 600 nm (OD600) reached a value of approximately 0.6. Protein expression was then induced with 400 µM IPTG and further incubated for 4 hours. Bacterial culture was centrifuged for 20 minutes at 6000 rpm at 4 °C. The pellet was then resuspended in lysis buffer (20 mM TRIS-HCl pH 7.5, 10 mM EDTA, 5 mM EGTA, 150 mM NaCl, 0.5 % NP40, 1 % Triton X-100, 1 mM DTT, 2 mg/ml lysozyme, 0.05 U/µl benzonase, 1x protease inhibitor cocktail). Lysate was then stored at -20 °C over night. Sample was thawed in water bath and sonicated on ice (40 % amplitude, 30 seconds pulse/30 seconds pause cycle). Lysate was centrifuged at 10000xg at 4 °C for half an hour. Meanwhile, 500 µl of glutathione sepharose beads was equilibrated with lysis buffer and then added to the supernatant. The mixture was incubated and rotated at room temperature for 2 hours. After binding of the protein to the beads, beads were spun down at 500xg at 4 °C for 5 minutes. Pellet was then washed with cold wash buffer at least four times (20 mM Tris-HCl pH 7.5, 10 mM EDTA, 5 mM EGTA, 150 mM NaCl, 1 mM DTT), dried and stored in 5 % glycerol at 4 °C.
# U2OS cells = test: autophagic flux by confocal microscopy and western blotting; format: cell-based, Human; details: 100 nM, alone
# Protocol: […]. After harvesting, cells were lysed with radioimmunoprecipitation assay (RIPA) buffer (50 mM Tris-HCl, pH 7.5, 150 mM NaCl, 0.5 % deoxycholate, 1 % Triton X-100, 0.1 % SDS and 1x protease inhibitors) and left on ice for 30 minutes. Cell lysates were clarified by centrifugation at 10000xg for 20 min at 4 °C. Protein concentrations of the supernatants were determined by BCA assay and the absorbance was measured at 562 nm. SDS-PAGE and WB was performed.
# For screening purposes, cells were seeded in 384 well plates and left over night for attachment. […]. For controls, cells were treated with 250 nM torin and/or 100 nM BafA1 for 2 hours.
# Afterwards, medium was removed and 4 % (w/v) paraformaldehyde (PFA) in PBS buffer was added to the cells for 20 minutes, incubated at room temperature. Cells were permeabilized with 0.1 % (v/v) Triton X-100 for 10 min at room temperature and washed with PBS. Cells were blocked with 3 % (w/v) bovine serum albumin (BSA) in PBS for 45 minutes at 37 °C and then incubated with anti-LC3B (PM036, MBL) or anti-p62 (PM045 or M162-3, MBL) primary antibody diluted in 0.3 % BSA (1:2000 or 1:500) for 1.5-2 hours at 37 °C. Cells were washed three times with PBS. Secondary Alexa Fluor 488 - labeled antibodies (A-11008, Invitrogen) were diluted in 0.3 % BSA (1:2500) and incubated on cells for 15 minutes at 37 °C. Cells were washed once with PBS, incubated with DRAQ5 (#4084, Cell Signaling) diluted in PBS (1:5000) for 10 minutes and washed three times with PBS.
# 384 well plates were then analyzed with an automated confocal microscope Opera (PerkinElmer) enabling high throughput high content screening image analysis. […] Signal was detected with a fast gated CCD camera. […]
# The LC3B protein is a ubiquitin-like protein that can be conjugated to phosphatidylethanolamine (PE) in the membrane of the incipient autophagosome. […] Autophagic flux is often inferred on the basis of LC3B-II turnover, measured by western blot (WB) or immunofluorescence (IF) in the presence and absence of lysosomal degradation. […]
Compound,Kd (LC3 proteins),LC3B inhibition cell free IC50 (LC3B [2]),LC3B inhibition cell based Fold increase of LC3B spots [DMSO control 1.0] (LC3B [1]),amount of LC3B-positive spots and lipidated LC3B (LC3B-II) (U2OS cells),LC3B Inhibition cell based Fold increase of LC3B spots (LC3B [1]; Table 2a)
"Fc1ccc(CN2CN=C(SCc3ccc(Br)cc3)NC2)cc1F [Compound I-17, 6-((4-bromobenzyl)thio)-3-(3,4-difluorobenzyl)-1,2,3,4-tetrahydro-1,3,5-triazine]",–,n.e,4.2,–,–
"CO/C1=C\C(C)=C\[C@@H](C)[C@@H](O)[C@@H](C)C/C(C)=C/C=C/[C@H](OC)[C@@H]([C@@H](C)[C@@H](O)[C@H](C)[C@@]2(O)C[C@@H](O)[C@H](C)[C@@H](C(C)C)O2)OC1=O [bafilomycin A1, reference compound]",–,–,5.5,increased,5.5

# The next lines start with results.
Kd (LC3 proteins),LC3B inhibition cell free IC50 (LC3B [2]),Compound,LC3B inhibition cell based Fold increase of LC3B spots [DMSO control 1.0] (LC3B [1]),amount of LC3B-positive spots and lipidated LC3B (LC3B-II) (U2OS cells),LC3B Inhibition cell based Fold increase of LC3B spots (LC3B [1]; Table 2a)
5 to 50 µM,–,"CO[C@@H]1[C@@H](OC(N)=O)[C@@H](O)[C@H](Oc2ccc3c(O)c(NC(=O)c4ccc(O)c(CC=C(C)C)c4)c(=O)oc3c2C)OC1(C)C [Compound 2-0, Novobiocin Sodium Salt]",–,–,–
–,n.e,"Fc1ccc(CN2CN=C(SCc3ccc(Cl)cc3)NC2)cc1 [Compound I-15, 6-((4-chlorobenzyl)thio)-3-(4-fluorobenzyl)-1,2,3,4-tetrahydro-1,3,5-triazine]",5.9,–,–
–,n.e,"Fc1ccc(CN2CN=C(SCc3cccc(Oc4ccccc4)c3)NC2)cc1 [Compound I-16, 3-(4-fluorobenzyl)-6-((3-phenoxybenzyl)thio)-1,2,3,4-tetrahydro-1,3,5-triazine]",n.e.,–,–

# Reference: patent publication EP3184514A1, “AUTOPHAGY INHIBITORS” (Deutsches Krebsforschungszentrum, priority 2015, dated 2017)
